Measured values reported in patent publication US7371372B2, “Compositions comprising IMPDH inhibitors and uses thereof for treating HCV infection” (Vertex Pharmaceuticals Incorporated, priority 2004, dated 2008).
Converted amounts (≈) assume the structure as drawn. Like-named read-outs stand apart in the source and are kept apart here. Marks after values point to notes of the source that are not given here.

Assays:
[1] = tested on: peripheral blood lymphocytes (PBLs); assay: anti-proliferative activity (IC50ap): inhibition of proliferation of peripheral blood lymphocytes; type: cell-based; conditions: for IC50: Lymphocyte
Text: Our algorithm predicts that there exists an optimal balance between the antiproliferative activity and the antiviral activity for ribavirin in combination with IFN. […] Per our algorithm described above, a “conversion factor” of 12.25 needs to be applied to the APQ to account for antiviral effects as distinct from the antiproliferative effects of ribavirin. Thus the corrected APQ (i.e. AAQ) for ribavirin ranges from 0.3 to 1.6.

[2] = anti-viral activity (IC50av); type: cell-based; conditions: for IC50: read-out: IC50av
Text: The ratio of IC50av/IC50ap is the Conversion Factor (“CV”), useful in converting an anti-proliferative response into an anti-viral response.

HCV [3] = assay: Interferon alpha 2b (INTRON A) and VX-497 in naive HCV patients, four week study (VX-497-003); type: in vivo, human; conditions: for % HCV RNA drop: genotype 1 naive patients
Text: Given the lower FQ for RBV in table 2 above, once again a surprising result of lower FQ giving better antiviral effects is seen.

HCV [4] = conditions: 1000 mg BID with PEGASYS, cited from earlier work
[5] = plasma concentrations Cavg and Cmin of the IMPDH inhibitor in human; type: in vivo
Text: An optimal composition according to the present invention comprises alpha-interferon or a derivative thereof, an IMPDH inhibitor and a pharmaceutical carrier, wherein said IMPDH inhibitor is present in said composition in an amount such that a ratio of Cavg/Cmin is between 1 to 10; • wherein: • Cavg is average steady-state plasma concentration produced by said IMPDH inhibitor in said human; and • Cmin is estimated trough concentration produced by said IMPDH inhibitor in said human.
Cavg is equal to AUC/T, wherein AUC is the area under the plasma concentration-time curve during a dosing interval of time T. Cavg and Cmin are readily determined by known techniques in the art. See, e.g., Gibaldi, M. and Perrier, D., Pharmacokinetics, 2nd Ed., Marcel Dekker, Inc. (1982); Khakoo, S. et al., Br. J. Clin. Pharmacol.46, pp. 563-570 (1998); Glue, P., Sem. Liver. Dis. 19, pp. 17-24 (1999).

HCV [6] = conditions: cited from earlier work; for sustained response (SR): IFN + ribavirin, two phase III trials; for HCV RNA drop: Ribavirin 600 mg BID with INTRON A, SR data from McHutchison and Poynard (1999)
[7] = cited from earlier work; for Cmin: estimated from Brunet et al.
IMPDH = conditions: estimated from Brunet et al.; cited from earlier work
[8] = Ribavirin 200 mg BID, estimated from literature kinetics
[9] = Ribavirin 400 mg BID, estimated from literature kinetics

## COc1cc(NC(=O)Nc2cccc(CNC(=O)O[C@H]3CCOC3)c2)ccc1-c1cnco1 [VX-497]
[1]
  IC50ap: 0.045 µg/mL
[2]; anti-viral activity, micromolar IC50 converted to ng/mL using molecular weight 452
  IC50av: 0.14 µg/mL (≈ 0.309 µM)
HCV [3]; VX-497 100 mg TID with INTRON A for 4 weeks
  % HCV RNA drop: 53%
HCV [3]; VX-497 300 mg TID with INTRON A for 4 weeks
  % HCV RNA drop: 50%
HCV [3]; with 3 MU IFN alpha 2b tiw, four weeks, baseline HCV RNA as covariate
  reduction in viral load, 100 mg TID compared with 300 mg TID: higher reduction in viral load

## COc1c(C)c2c(c(O)c1C/C=C(\C)CCC(=O)OCCN1CCOCC1)C(=O)OC2 [mycophenolate mofetil]
HCV [4]; four-week analysis
  proportion of patients achieving significant antiviral effects, compared to PEGASYS and RBV: lower proportion of patients achieving significant antiviral effects

## NC(=O)c1ncn([C@@H]2O[C@H](CO)[C@@H](O)[C@H]2O)n1 [Ribavirin, ribavirin]
[1]; read-out: IC50ap
  IC50: 976 ng/mL
[2]
  IC50: 12 µg/mL (≈ 49 µM)
[5]; [8]
  Cavg: 3542 ng/mL
  Cmin: 740 ng/mL
[5]; [9]
  Cavg: 7083 ng/mL
  Cmin: 1450 ng/mL
[5]; Ribavirin 600 mg BID, estimated from literature kinetics
  Cmin: 2250 ng/mL
[5]; Ribavirin 600 mg BID, estimated from single dose kinetics (Glue) and accumulation factor (Khakoo), AUC(0-t)/dosing interval
  Cavg: 19000 ng/mL
HCV [6]; genotype 1 patients
  sustained response (SR): around 30%
HCV [6]; non-genotype 1 patients
  sustained response (SR): ~60%
HCV [6]; MTD of ribavirin
  hemolytic anemia: significant hemolytic anemia
HCV [6]; genotype 1
  HCV RNA drop: 30%^a,
HCV [6]; non-genotype 1
  HCV RNA drop: 60%^b
HCV [6]; to 600 mg daily, with IFN
  change in SR on dropping the ribavirin dose by one-half: no significant change in SR

## COc1c(C)c2c(c(O)c1C/C=C(\C)CCC(=O)O)C(=O)OC2 [MPA, mycophenolic acid]
[1]; in vitro, read-out: IC50ap (ng/mL) in vitro
  IC50: 32 ng/mL
[2]; anti-viral activity, micromolar IC50 converted to ng/mL using molecular weight of 320
  IC50: 0.122 µg/mL (≈ 0.381 µM)
[7]; MPA 500 mg BID
  Cmin: 1630 ng/mL
[7]; MPA 500 mg BID, from Brunet et al.
  Cavg: 3163 ng/mL
[7]; MPA 750 mg BID
  Cmin: 1400 ng/mL
[7]; MPA 750 mg BID, from Brunet et al.
  Cavg: 3425 ng/mL
[7]; MPA 1000 mg BID
  Cmin: 2060 ng/mL
[7]; MPA 1000 mg BID, median AUC(0-t)/dosing interval from Brunet et al.
  Cavg: 3869 ng/mL
HCV [4]; non-responders to REBETRON with 90% genotype 1 patients
  % HCV RNA drop: 31^a, %
HCV [4]; relapsers on REBETRON with 79% genotype 1 patients
  % HCV RNA drop: 72^b %
IMPDH
  IC50ap (ng/mL) in vivo: 10800 ng/mL (≈ 33.7 µM)
